From ChEMBL document CHEMBL1201862, “PubChem BioAssay data set” (2004)
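These data come from cells grown in 96-well plates and exposed to compound for 48 hours at five concentrations. GI50: concentration for 50% inhibition of growth.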 Active and inactive are the calls of the source. Cut-off read from the data, not from the text of the source: active = GI50 up to about 1.1 µM and inactive = higher.

Legend:
Experiment in all cases: NCI anticancer screen, dose series, 48 h
[1] = test system: SR
[2] = test system: U-251
[3] = test system: OVCAR-4
[4] = test system: NCI-H460
[5] = test system: HL-60
[6] = test system: SK-MEL-5
[7] = test system: HCT-116
[8] = test system: K562
[9] = test system: HOP-92
[10] = test system: SW-620
[11] = test system: SNB-75
[12] = test system: MOLT-4
[13] = test system: OVCAR-3
[14] = test system: SF-295
[15] = test system: SF-268
[16] = test system: IGROV-1
[17] = test system: HCC 2998
[18] = test system: DU-145
[19] = test system: MDA-MB-231
[20] = test system: RPMI-8226

Compound | GI50 [1] | GI50 [2] | GI50 [3] | GI50 [4] | GI50 [5] | GI50 [6] | GI50 [7] | GI50 [8] | GI50 [9] | GI50 [10] | GI50 [11] | GI50 [12] | GI50 [13] | GI50 [14] | GI50 [15] | GI50 [16] | GI50 [17] | GI50 [18] | GI50 [19] | GI50 [20]
Cc1ccc(/C=N/NS(=O)(=O)c2ccc(/C=C3\NC(=O)NC3=O)cc2)cc1 | 31.6 µM (inactive) | 40.8 µM (inactive) | > 100 µM (inactive) | > 100 µM (inactive) | > 100 µM (inactive) | > 100 µM (inactive) | > 100 µM (inactive) | > 100 µM (inactive) | 53.7 µM (inactive) | > 100 µM (inactive) | 18.2 µM (inactive) | > 100 µM (inactive) | > 100 µM (inactive) | 46.7 µM (inactive) | 22.1 µM (inactive) | 87.9 µM (inactive) | > 100 µM (inactive) | > 100 µM (inactive) | 37.1 µM (inactive) | > 100 µM (inactive)
NC1=NCN(C2OC(CO)C(O)C2O)C(=O)N1 (stereo not given) | 4.49 µM (inactive) | 27.9 µM (inactive) | 139 µM (inactive) | 5.48 µM (inactive) | 0.838 µM (active) | 42 µM (inactive) | 16.6 µM (inactive) | 2.28 µM (inactive) | 391 µM (inactive) | 16.7 µM (inactive) | 22.5 µM (inactive) | 5.21 µM (inactive) | 38.6 µM (inactive) | 43.4 µM (inactive) | 15.1 µM (inactive) | 5.74 µM (inactive) | 40.4 µM (inactive) | 148 µM (inactive) | 38.5 µM (inactive) | 1.8 µM (inactive)
C[N+]1(CCC(=O)c2ccccc2)CCC2CCC(C2)C1 (stereo not given) | > 100 µM (inactive) | > 100 µM (inactive) | > 100 µM (inactive) | > 100 µM (inactive) | > 100 µM (inactive) | > 100 µM (inactive) | > 100 µM (inactive) | > 100 µM (inactive) | > 100 µM (inactive) | > 100 µM (inactive) | > 100 µM (inactive) | > 100 µM (inactive) | > 100 µM (inactive) | > 100 µM (inactive) | > 100 µM (inactive) | > 100 µM (inactive) | > 100 µM (inactive) | > 100 µM (inactive) | > 100 µM (inactive) | > 100 µM (inactive)
O=[N+]([O-])c1ccc2c(/N=N/c3c(O)ccc4ccccc34)c(O)cc(S(=O)(=O)O)c2c1 | 26.2 µM (inactive) | 3.45 µM (inactive) | 35.2 µM (inactive) | 44.4 µM (inactive) | 1.09 µM (active) | 11.2 µM (inactive) | 14.4 µM (inactive) | 9.16 µM (inactive) | 16.6 µM (inactive) | 13.8 µM (inactive) | 21.9 µM (inactive) | 1.39 µM (inactive) | 1.69 µM (inactive) | 13.3 µM (inactive) | 7.31 µM (inactive) | 4.89 µM (inactive) | 63.1 µM (inactive) | 36.1 µM (inactive) | 18 µM (inactive) | 8.26 µM (inactive)
